Consider 3 sequences from patent US9738878B2, “HIV-1 integrase derived peptides and compositions” (priority 2008, dated 2017).

No end group written: not given here.

The target of data set [1] is T1, Rev 13-23 (Human immunodeficiency virus type 1 group M subtype B, UniProt P04618).
T1 construct: biotinylated-BSA-Rev 13-23 or Rev 53-67 conjugates
In words: ELISA-based binding assay, biotinylated-BSA-Rev 13-23 conjugate on peptide-coated plates. Also on record: species or system HIV-1. The procedure:
(§1) Protein-peptide binding was estimated using an ELISA-based binding assay as described previously (Rosenbluh et al., 2006, Anal Biochem 352, 157-168). Briefly, Maxisorp plates (Nunc) were incubated at room temperature for 2 h with 200 μl of 10 μg/ml synthetic peptide in carbonate buffer. After incubation, the solution was removed, the plates were washed three times with PBS, and 200 μl of 10% BSA in PBS (w/v) was added for 2 h at room temperature. […] Following three washes with PBS, the concentration of bound biotinylated molecules was estimated after the addition of streptavidin-horseradish peroxidase (HRP) conjugate (Sigma), as described previously (Melchior et al., 1993, J Cell Biol 123, 1649-1659). The concentration of bound protein molecules was estimated after the addition of anti-GFP mouse antibody (Santa Cruz) which then was interacted with rabbit anti-mouse IgG antibody conjugated to HRP. The enzymatic activity of HRP was estimated by monitoring the product's optical density (OD) at 490 nm using an ELISA plate reader (Tecan Sunrise). Each measurement was performed at least in duplicate.
(§2) Selection of peptide sequences that interact with the Rev protein, Rev-derived peptides, and the IN itself was made by screening of an N peptide library (NIH AIDS Research and Reference Reagent Program, Division of AIDS, NIAID, NIH: HIV-1 Consensus B Pol (15-mer) peptides—Complete Set from DAIDS, NIAID), using an ELISA-based assay system.
(§3) FIG. 1: 1A—Rev-GFP or GFP alone were incubated in ELISA plates coated with either INr-1 (♦, ⋄, respectively), INr-2 (▪, □, respectively) or INS (▴, Δ, respectively) and binding was determined as described above. 1B—The IN protein was first bound to the ELISA plate and then incubated with Rev-GFP to obtain a Rev-IN complex. The complex was then incubated with either one of the INr peptides or the INS peptide at the designated Rev-GFP:peptide ratio. Wells were then washed and the amount of bound Rev-GFP was determined by mouse anti-GFP antibody and secondary rabbit anti-mouse HRP-conjugated antibody. […]
(In general: An ELISA detects its analyte on a solid surface through an enzyme-linked reagent.)

The target of data set [2] is T2, Rev 53-67 (Human immunodeficiency virus type 1 group M subtype B, UniProt P04618).
T2 construct: biotinylated-BSA-Rev 13-23 or Rev 53-67 conjugates
In words: ELISA-based binding assay, biotinylated-BSA-Rev 53-67 conjugate on peptide-coated plates. On the set-up: species or system HIV-1. The protocol:
as §1, §2, §3

For data set [3], the system named is Rev-GFP. As to the kind of experiment: ELISA-based binding assay, Rev-GFP on peptide-coated plates. Also on record: species or system HIV-1. The conditions noted are these: screen of IN peptide library. The procedure: as §1, §2, §3
The target in data set [4] is T3, IN (Human immunodeficiency virus type 1 group M subtype B, UniProt P12497).
T3 construct: The histidine-tagged IN expression vector was a generous gift from Dr. A. Engelman; histidine tag; made in house
As to the kind of experiment: IN enzymatic activity assay. Type of data set: biochemical, HIV-1. The conditions noted are these: for integrase activity inhibited by Rev-derived peptide, restoration: molar ratio 1:10 (Rev peptide:INr peptide). The protocol:
The IN enzymatic activity assay was performed using a previously described assay system (Craigie et al., 1991, Nucleic Acids Res 19, 2729-2734, Hwang et al., 2000, Nucleic Acids Res 28, 4884-4892). Briefly, the oligonucleotide substrate consisted of one oligo (5′-[…]-3′) labeled with biotin at the 3′ end and the other oligo (5′-[…]-3′) labeled with digoxigenin at the 5′ end. When inhibition was studied, the IN was preincubated with the peptide or protein for 15 min prior to addition of the DNA substrate.
FIG. 2 (A) Rev-GFP (dark green) or GFP (turquoise) were incubated at different molar ratios with IN (390 nM) and the IN enzymatic activity was determined as described above. (B) Rev-GFP was preincubated with the indicated INS peptide at a molar ratio of 5:1 (peptide:Rev-GFP) and the resultant mixture was added to a solution containing IN to give a molar ratio of 1:200 and 1:400 (IN:Rev-GFP). Following an incubation period, IN activity was estimated as described above. (C) Same as (B) but with the INrs peptides.
FIG. 3 A-C IN (390 nM) was incubated with 50 μM of the Rev-derived peptides (1:300 IN:Rev-derived peptide, Rev13-23 or Rev 53-67) and then the INS peptide was added at different molar ratios ranging from 10:1 to 1:10 (Rev peptide:INS peptide) (A) IN (390 nM) was incubated with 50 μM of the Rev-derived peptides (1:300 IN:Rev-derived peptide), (Rev13-23 (B) and Rev 53-67 (C)) and then the INr peptides were added at different molar ratios ranging from 10:1 to 1:10 (Rev peptide:INr peptide).

The test system of data set [5] is HIV-1.
Protocol: Quantitative titration of HIV-1 was carried out using the MAGI assay, as described by Kimpton and Emerman (J Virol 1992, 66, 2232-2239). […] Two days post-infection (PI), cultured cells were fixed and ƒl-galactosidase was estimated as described above. Blue cells were counted under a light microscope at 200× magnification.
The concentration of azidothymidine (AZT) used was 2 μM.
The test system of data set [6] is HIV-1 infected lymphocyte cells. In words: Lysis of HIV-1 infected cells after one cycle of infection, MTT. The conditions noted are these: 62.5-150 μM, ΔENV/VSV-G HIV-1 MOI 10, MTT 48 h post infection.
Data set [7] relates to HIV-1 DNA integration. As to the kind of experiment: Copy numbers of HIV-1 DNA integrated into cellular genome, real-time PCR. The conditions noted are these: H9 cells, 24 hours post infection, single cycle of infection, Δenv/VSV-G HIV-1. Type of data set: cell-based. The protocol: During the second-round PCR, the first-round PCR product could be specifically amplified by using the tag-specific primer (tag-F 5′-[…]-3′) and the LTR primer (LTR-R 5′-[…]-3′) designed by PrimerExpress (Applied Biosystems) using default settings. The second-round PCR was performed on 1/25th of the first-round PCR product in a mixture containing 300 nM of each primer, 12.5 μl of 2λ SYBR Green master mixture (Applied Biosystems) at a final volume of 25 μl, run on an ABI PRIZM 7700 (Applied Biosystems).
For generation a standard calibration curve, the SVC21 plasmid containing the full-length HIV-1HXB2 viral DNA was used as a template. In the first-round PCR, the LTR-TAG-F and LTR-R primers were used and the second-round PCR was performed using the tag-F and LTR-R primers. The standard linear curve was in the range of 5 ng to 0.25 fg (R=0.99). DNA samples were assayed with quadruplets of each sample. The cell equivalents in the sample DNA were calculated based on amplification of the 18S gene by real-time PCR as described in (Field et al, 2002, Biochem J 368, 855-864).
. (B) H9 T-lymphoid cells were incubated with the indicated peptides (12.5 μM) or AZT (2 μM) and following HIV-1 infection, the integrated viral DNA/cell was assessed by real-time PCR following a single cycle of infection at a MOI of 5 of Δenv/VSV-G HIV-1.
For orientation: Quantitative PCR measures a nucleic acid by following its amplification.

The nature of data set [8]: Survival of HIV-1 infected and uninfected Hela cells. Format: cell-based. The conditions noted are these: human, uninfected HeLa cells, read-out: intact viable uninfected Hela cells. The procedure: FIG. 7 Percentage of viable infected and uninfected Hela cells normalized every two days to the number of cells in the non treated non infected cells sample. Cells were infected with WT HIV-1 at MOI of 0.01 and the treated cells were added 12.5 μM of INS.

The subject of data set [9] is HeLa cells. As to the kind of experiment: Cell-penetration experiments, fluorescein-labeled peptides, confocal microscopy. Format: cell-based. The conditions noted are these: fluorescein-labeled peptide 10 μM. The procedure:
Fluorescein-labeled peptides at a final concentration of 10 μM in PBS were incubated with HeLa cells for 1 h at 37° C.
The cells were then washed three times with PBS and visualized by a confocal microscope. […] (C) same as (B) but in H9 lymphocytes

Data set [10] relates to HIV-1. Conditions: H9 and Sup-T1 cells, peptide 12.5 μM.
Protocol: Cultured lymphocytes (1×10^5) were centrifuged for 5 min at 2000 rpm and after removal of the supernatant, the cells were resuspended in 0.2 to 0.5 ml of RPMI 1640 medium containing virus at a multiplicity of infection (MOI) of 0.01, 0.1 and 5. Following absorption for 2 h at 37° C., the cells were washed to remove unbound virus and then incubated at the same temperature for an additional 1 to 8 days.
Lymphoid cells were incubated with the indicated peptides for 2 h and following infection with wild-type HIV-1 at a MOI of 0.01 (as described above), the cells were incubated for 8 days, or 48 h at a MOI of 1. The amount of p24 protein was estimated in the cell medium every 2 days exactly as described previously.
The amount of viral P24 (A and B) and virus titer (C and D) were determined every 2 days by ELISA and MAGI assay (Kimpton 1992, J Virol 66, 2232-2239), respectively. The concentration of azidothymidine (AZT) used was 2 μM.
In data set [11] the test system is HeLa TZM-b1 cells. In words: Cell viability, MTT assay. Conditions: up to about 62 μM. Format: cell-based. A general note: Formazan colour is commonly taken as a measure of viable cells.
Data set [12] addresses T3, IN. As to the kind of experiment: ELISA-based binding assay, IN protein. On the set-up: species or system HIV-1. The protocol: Each measurement was performed at least in duplicate.
Selection of peptide sequences that interact with the Rev protein, Rev-derived peptides, and the IN itself was made by screening of an N peptide library (NIH AIDS Research and Reference Reagent Program, Division of AIDS, NIAID, NIH: HIV-1 Consensus B Pol (15-mer) peptides—Complete Set from DAIDS, NIAID), using an ELISA-based assay system. […] This observation further confirmed that the sequence of the NS and INrs peptides within the N protein mediate the interaction with the Rev protein. The NS peptide interacted with both Rev 13-23 and Rev 53-67 peptides while Nr-1 and Nr-2 interacted with the Rev 53-67 and Rev 13-23 peptides respectively (FIG. 1D and Table 1). […] This was inferred from experiments showing that biotinylated-BSA-Rev 13-23 or Rev 53-67 conjugates were able to interact with NS or INrs peptides-coated plates (FIGS. 1C and 1D).

For data set [13], the system named is Rev-IN complex. Conditions: peptide added to preformed complex.

WGSNFTSTTVKA [INr-2]: the “interaction with Rev 13-23 peptide” value in data set [1] was “interacted”. The “interaction with Rev 53-67 peptide” value in data set [2] is listed as “not with Rev 53-67”. For the same sequence, in data set [3], the “interaction with Rev-GFP” value is “specifically interacting”. Further, the “abrogation of inhibitory effect of Rev 13-23 peptide on IN activity” value in [4] (IN 390 nM, Rev peptide 50 μM) was “abrogated the inhibitory effect”. The “integrase activity inhibited by Rev-derived peptide, restoration” value in [4] is reported as “fully restored”.
In the case of WTAVQMAVFIHNFKRK [INS], the “appearance of infectious viral particles” value in data set [5] is listed as “stimulation”. Moreover, in data set [1], the “interaction with Rev 13-23 peptide” value is “interacted”. In data set [6], the “cell death after one cycle of infection” value was “induce killing of only infected lymphocyte cells”. Further, in data set [2], the “interaction with Rev 53-67 peptide” value is “interacted”. In addition, the “stimulation of integration per cell” value in data set [7] is on record as 2- to 5 fold. Further, the “interaction with Rev-GFP” value in data set [3] is recorded as “specifically interacting”. For the same sequence, the viability at 12.5 µM in data set [8] is around 100%. Besides, the cell penetration entry in data set [9] was “cell-permeable”. Also, in [10], the “appearance of viral p24 antigen” value is listed as “Stimulation”. Further, the cell toxicity result in [11] is listed as “non-toxic”. The “interaction with the IN protein itself” value in data set [12] is “interact”. In data set [4] (in the absence of the inhibitory Rev peptide), the “enzymatic activity of HIV-1 IN” value is “significantly stimulated”. Moreover, the “integrase activity inhibited by Rev-derived peptides, restoration” value in data set [4] (molar ratio Rev:INS peptide 1:5) is “fully restored”. Further, the “integrase activity in presence of Rev-derived peptides” value in [4] (molar ratio Rev:INS peptide 1:10) is recorded as “stimulate the IN activity”. For the same sequence, in data set [4] (peptide:Rev-GFP 5:1, IN:Rev-GFP 1:200 and 1:400), the “abrogation of Rev-GFP inhibition of IN activity” value is on record as “abrogated the inhibitory activities of Rev-GFP”. Also, the “release of bound Rev-GFP from the complex formed between IN and Rev-GFP” value in [13] is listed as “induces the release of the bound Rev-GFP”.
Regarding WTHLEGKIILVAVHVA [INr-1], the “interaction with Rev 13-23 peptide” value in [1] was “not with the Rev 13-23 peptide”. In data set [2], the “interaction with Rev 53-67 peptide” value is listed as “interacted”. Moreover, in data set [3], the “interaction with Rev-GFP” value is “specifically interacting”. In addition, the “abrogation of inhibitory effect of Rev 53-67 peptide on IN activity” value in data set [4] (IN 390 nM, Rev peptide 50 μM) is recorded as “abrogated the inhibitory effect”. In addition, the “integrase activity inhibited by Rev-derived peptide, restoration” value in data set [4] is “fully restored”.
